Test results published in US20230089867A1, “CYCLIC PENTAMER COMPOUNDS AS PROPROTEIN CONVERTASE SUBTILISIN/KEXIN TYPE 9 (PCSK9) INHIBITORS FOR THE TREATMENT OF METABOLIC DISORDER” (Novartis AG, priority 2018, published 2023).

Molecular target: human PCSK9 (Homo sapiens, UniProt Q8NBP7)
Assay: PCSK9 ligand binding TR-FRET assay (interference with binding of human PCSK9 to human LDLR)
Settings: for Max % inhibition: PCSK9 FRET assay, efficacy (Amax), 100% = 1 uM unlabeled human PCSK9, 0% = DMSO; for IC50: TR-FRET, human PCSK9 Alexa Fluor 647 / human LDLR extracellular domain-Europium Kryptate, read-out: PCSK9 FRET Assay IC50
Outline: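 Threefold compound dilutions were pre-incubated 30 min with PCSK9, after which 4 nM Europium Kryptate-tagged human LDLR ectodomain was added for a further 2 h.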

Chain of human PCSK9 (Q8NBP7 153-692): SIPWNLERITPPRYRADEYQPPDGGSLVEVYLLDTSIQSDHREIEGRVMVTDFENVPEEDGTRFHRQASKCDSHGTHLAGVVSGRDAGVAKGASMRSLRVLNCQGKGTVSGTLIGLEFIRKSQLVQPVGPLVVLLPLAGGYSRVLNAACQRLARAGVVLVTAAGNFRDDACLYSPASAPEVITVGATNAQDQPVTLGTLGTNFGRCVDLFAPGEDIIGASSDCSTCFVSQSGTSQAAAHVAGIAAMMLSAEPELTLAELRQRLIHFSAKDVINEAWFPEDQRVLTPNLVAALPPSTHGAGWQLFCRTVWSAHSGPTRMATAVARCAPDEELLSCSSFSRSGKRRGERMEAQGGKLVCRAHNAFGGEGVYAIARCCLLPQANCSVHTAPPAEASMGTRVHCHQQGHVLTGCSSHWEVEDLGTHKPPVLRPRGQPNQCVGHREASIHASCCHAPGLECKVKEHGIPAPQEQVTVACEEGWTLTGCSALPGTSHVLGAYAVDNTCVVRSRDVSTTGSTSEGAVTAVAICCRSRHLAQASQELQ
Chain of human PCSK9 (Q8NBP7 31-152 partner limits assumed): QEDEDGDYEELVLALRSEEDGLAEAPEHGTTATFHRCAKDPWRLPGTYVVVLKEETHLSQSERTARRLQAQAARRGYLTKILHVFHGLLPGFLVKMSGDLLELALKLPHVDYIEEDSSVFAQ

Row | Max % inhibition [%] | IC50 [nM] | Structure (SMILES)
1 | 104.33 | 46.5 | COC[C@@H]1NC(=O)[C@@H](C)N(Cc2ccc(C(F)F)cc2Oc2ccc(-c3cnc(CN(C)C)n3C)cc2)C(=O)C[C@@H](Cc2ccccc2)C(=O)N(C)[C@@H](C)CNC(=O)C[C@H](Cc2ccc(Cl)cc2)N(C)C1=O [Compound 74, (2R,5S,8S,13S,16R)-16-benzyl-8-(4-chlorobenzyl)-1-(4-(difluoromethyl)-2-(4-(2-((dimethylamino)methyl)-1-methyl-1H-imidazol-5-yl)phenoxy)benzyl)-5-(methoxymethyl)-2,7,13,14-tetramethyl-1,4,7,11,14-pentaazacyclooctadecane-3,6,10,15,18-pentaone]
2 | 100.92 | 0.6 | C=CC[C@@H]1CC(=O)N(Cc2ccc(Cl)cc2Oc2ccc(-c3cnc(CN(C)C)n3C)cc2)[C@@H](C)C(=O)N[C@@H](COC)C(=O)N(C)[C@@H](Cc2ccc(Cl)cc2)CC(=O)N[C@@H](C)[C@H](C)N(C)C1=O [Compound 289, (2S,5S,8S,12S,13S,16R)-16-allyl-1-(4-chloro-2-(4-(2-((dimethylamino)methyl)-1-methyl-1H-imidazol-5-yl)phenoxy)benzyl)-8-(4-chlorobenzyl)-5-(methoxymethyl)-2,7,12,13,14-pentamethyl-1,4,7,11,14-pentaazacyclooctadecane-3,6,10,15,18-pentaone]
3 | 64.09 | 43 | COC[C@@H]1NC(=O)[C@H](C)N(Cc2ccc(Cl)cc2Oc2ccc(-c3cnc(OC)nc3)cc2)C(=O)C[C@@H](Cc2ccccc2)C(=O)N(C)[C@@H](C)CNC(=O)C[C@H](Cc2ccc(Cl)cc2)N(C)C1=O [Compound 69, (2S,5S,8S,13S,16R)-16-benzyl-1-(4-chloro-2-(4-(2-methoxypyrimidin-5-yl)phenoxy)benzyl)-8-(4-chlorobenzyl)-5-(methoxymethyl)-2,7,13,14-tetramethyl-1,4,7,11,14-pentaazacyclooctadecane-3,6,10,15,18-pentaone]
4 | 70.99 | 4.3 | COC[C@@H]1NC(=O)[C@H](C)N(Cc2ccc(Cl)cc2Oc2ccc(-c3cnc4c(c3)CN(C(=O)[C@H]3CCNC3)CC4)cc2)C(=O)C[C@@H](Cc2ccccc2)C(=O)N(C)[C@@H](C)CNC(=O)C[C@H](Cc2ccc(Cl)cc2)N(C)C1=O [Compound 176, (2S,5S,8S,13S,16R)-16-benzyl-1-(4-chloro-2-(4-(6-((S)-pyrrolidine-3-carbonyl)-5,6,7,8-tetrahydro-1,6-naphthyridin-3-yl)phenoxy)benzyl)-8-(4-chlorobenzyl)-5-(methoxymethyl)-2,7,13,14-tetramethyl-1,4,7,11,14-pentaazacyclooctadecane-3,6,10,15,18-pentaone]
5 | 58.33 | 9.4 | COC[C@@H]1NC(=O)[C@H](C)N(Cc2ccc(Cl)cc2Oc2ccc(-c3cncc(C4CN(C)CCN4C)c3)cc2)C(=O)C[C@@H](Cc2ccccc2)C(=O)N(C)[C@@H](C)CNC(=O)C[C@H](Cc2ccc(Cl)cc2)N(C)C1=O (stereo partly drawn) [Compound 135, (2S,5S,8S,13S,16R)-16-benzyl-1-(4-chloro-2-(4-(5-(1,4-dimethylpiperazin-2-yl)pyridin-3-yl)phenoxy)benzyl)-8-(4-chlorobenzyl)-5-(methoxymethyl)-2,7,13,14-tetramethyl-1,4,7,11,14-pentaazacyclooctadecane-3,6,10,15,18-pentaone]
6 | 105.15 | 0.9 | COC[C@@H]1NC(=O)[C@H](CC(=O)O)N(Cc2ccc(Cl)cc2Oc2ccc(-c3cnc(CN(C)C)n3C)cc2)C(=O)C[C@@H](Cc2ccccc2)C(=O)N(C)[C@H]2CCCC[C@@H]2NC(=O)C[C@H](Cc2ccc(Cl)cc2)N(C)C1=O [Compound 219, 2-((4S,7S,10S,14R,16aS,20aS)-14-benzyl-11-(4-chloro-2-(4-(2-((dimethylamino)methyl)-1-methyl-1H-imidazol-5-yl)phenoxy)benzyl)-4-(4-chlorobenzyl)-7-(methoxymethyl)-5,16-dimethyl-2,6,9,12,15-pentaoxodocosahydrobenzo[l][1,4,7,11,14]pentaazacyclooctadecin-10-yl)acetic acid]
7 | 98.35 | 1.4 | CNC(=O)C[C@@H]1NC(=O)[C@H](C)N(Cc2ccc(Cl)cc2Oc2ccc(-c3cnc(CN(C)C)n3C)cc2)C(=O)C[C@@H](Cc2ccccc2)C(=O)N(C)[C@@H](C)CNC(=O)C[C@H](Cc2ccc(Cl)cc2)N(C)C1=O [Compound 221, 2-((2S,5S,8S,13S,16R)-16-benzyl-1-(4-chloro-2-(4-(2-((dimethylamino)methyl)-1-methyl-1H-imidazol-5-yl)phenoxy)benzyl)-8-(4-chlorobenzyl)-2,7,13,14-tetramethyl-3,6,10,15,18-pentaoxo-1,4,7,11,14-pentaazacyclooctadecan-5-yl)-N-methylacetamide]
8 | 92.29 | 5.6 | COC[C@@H]1NC(=O)[C@H](C)N(Cc2ccc(Cl)cc2Oc2ccc(-c3cnc(CN4CCCC4)n3C)cc2)C(=O)C[C@@H](Cc2ccc(F)c(F)c2)C(=O)N(C)[C@@H](C)CNC(=O)C[C@H](Cc2ccc(Cl)cc2)N(C)C1=O [Compound 165, (2S,5S,8S,13S,16R)-1-(4-chloro-2-(4-(1-methyl-2-(pyrrolidin-1-ylmethyl)-1H-imidazol-5-yl)phenoxy)benzyl)-8-(4-chlorobenzyl)-16-(3,4-difluorobenzyl)-5-(methoxymethyl)-2,7,13,14-tetramethyl-1,4,7,11,14-pentaazacyclooctadecane-3,6,10,15,18-pentaone]
9 | 101.21 | 41 | COC[C@@H]1NC(=O)[C@H](C)N(Cc2ccc(Cl)cc2Oc2ccc(-c3cnc(CN(C)C)n3C)cc2)C(=O)C[C@@H](Cc2ccccc2)C(=O)N(C)C(C)C(C)NC(=O)C[C@H](Cc2ccc(Cl)cc2)N(C)C1=O (stereo partly drawn) [Compound 50, (2S,5S,8S,16R)-16-benzyl-1-(4-chloro-2-(4-(2-((dimethylamino)methyl)-1-methyl-1H-imidazol-5-yl)phenoxy)benzyl)-8-(4-chlorobenzyl)-5-(methoxymethyl)-2,7,12,13,14-pentamethyl-1,4,7,11,14-pentaazacyclooctadecane-3,6,10,15,18-pentaone]
10 | 99.31 | 1.4 | COC[C@@H]1NC(=O)[C@H](C)N(Cc2ccc(Cl)cc2Oc2ccc(-c3cnc(CN(C)C)n3C)cc2)C(=O)C[C@@H](Cc2ccccc2)C(=O)N(C)C2CCOCC2NC(=O)CC(Cc2ccc(Cl)cc2)N(C)C1=O (stereo partly drawn) [Compound 61, (4S,7S,10S,14R)-14-benzyl-11-(4-chloro-2-(4-(2-((dimethylamino)methyl)-1-methyl-1H-imidazol-5-yl)phenoxy)benzyl)-4-(4-chlorobenzyl)-7-(methoxymethyl)-5,10,16-trimethyltetradecahydro-1H-pyrano[3,4-1][1,4,7,11,14]pentaazacyclooctadecine-2,6,9,12,15(3H)-pentaone]
11 | 95.27 | 2.9 | COC[C@@H]1NC(=O)[C@H](C)N(Cc2ccc(Cl)cc2Oc2ccc(-c3cnc(CN(C)C)n3C)cc2)C(=O)CCC(=O)N(C)[C@H]2CCCC[C@@H]2NC(=O)C[C@H](Cc2ccc(Cl)cc2)N(C)C1=O [Compound 202, (4S,7S,10S,16aS,20aS)-11-(4-chloro-2-(4-(2-((dimethylamino)methyl)-1-methyl-1H-imidazol-5-yl)phenoxy)benzyl)-4-(4-chlorobenzyl)-7-(methoxymethyl)-5,10,16-trimethylhexadecahydrobenzo[l][1,4,7,11,14]pentaazacyclooctadecine-2,6,9,12,15(3H)-pentaone]
12 | 99.91 | 0.6 | COC[C@@H]1NC(=O)[C@H](C)N(Cc2ccc(Cl)cc2Oc2ccc(-c3cnc(CN4CCCC4)n3C)cc2)C(=O)C[C@@H](Cc2ccccc2F)C(=O)N(C)[C@@H](C)CNC(=O)C[C@H](Cc2ccc(Cl)cc2)N(C)C1=O [Compound 229, (2S,5S,8S,13S,16R)-1-(4-chloro-2-(4-(1-methyl-2-(pyrrolidin-1-ylmethyl)-1H-imidazol-5-yl)phenoxy)benzyl)-8-(4-chlorobenzyl)-16-(2-fluorobenzyl)-5-(methoxymethyl)-2,7,13,14-tetramethyl-1,4,7,11,14-pentaazacyclooctadecane-3,6,10,15,18-pentaone]
13 | 102.55 | 5.8 | COC[C@@H]1NC(=O)[C@H](CCC(=O)N2CCOCC2)N(Cc2ccc(Cl)cc2Oc2ccc(-c3cnc(CN(C)C)n3C)cc2)C(=O)C[C@@H](Cc2ccccc2)C(=O)N(C)[C@@H](C)CNC(=O)C[C@H](Cc2ccc(Cl)cc2)N(C)C1=O [Compound 175, (2S,5S,8S,13S,16R)-16-benzyl-1-(4-chloro-2-(4-(2-((dimethylamino)methyl)-1-methyl-1H-imidazol-5-yl)phenoxy)benzyl)-8-(4-chlorobenzyl)-5-(methoxymethyl)-7,13,14-trimethyl-2-(3-morpholino-3-oxopropyl)-1,4,7,11,14-pentaazacyclooctadecane-3,6,10,15,18-pentaone]
14 | 102.18 | 24.5 | COC[C@@H]1NC(=O)[C@H](C)N(Cc2ccc(C(F)F)cc2Oc2ccc(-c3cnc(CN(C)C)n3C)cc2)C(=O)C[C@@H](Cc2ccccc2)C(=O)N(C)[C@@H](C)CNC(=O)C[C@H](Cc2ccc(Cl)cc2)N(C)C1=O [Compound 42, (2S,5S,8S,13S,16R)-16-benzyl-8-(4-chlorobenzyl)-1-(4-(difluoromethyl)-2-(4-(2-((dimethylamino)methyl)-1-methyl-1H-imidazol-5-yl)phenoxy)benzyl)-5-(methoxymethyl)-2,7,13,14-tetramethyl-1,4,7,11,14-pentaazacyclooctadecane-3,6,10,15,18-pentaone]
